# Patent US7347984B2, “Mammalian agmatinase inhibitory substance” (Jackson State University, priority 2004, dated 2008)
# Counter-ions that a name gives are not always drawn.
# Experiments:
# [1] = target: T1, rat eNOS (epithelial NOS) (Rattus norvegicus, UniProt Q62600); test: NOS activity, [3H]arginine to [3H]citrulline conversion, eNOS; assay type: biochemical; conditions: Conc = 1 mM
# T1 construct: purchased Cayman, Ann Arbor, Mich
# Procedure: (§1) NOS activity was measured by monitoring the conversion of [^3H]arginine to [^3H]citrulline (Bret et al. 1990) using three commercially available isoforms of rat NOS: nNOS (neuronal NOS) (602 units/ml, 14.9 mg/ml), iNOS (inducible NOS) (249.7 units/ml, 21.1 mg/ml), and eNOS (epithelial NOS) (30 units/ml, 14.6 mg/ml) (Cayman, Ann Arbor, Mich.). Neuronal NOS and iNOS were diluted 1:10, while eNOS was used directly without dilution. Unless otherwise indicated, each tube was incubated at 37° C. for 60 minutes. Assay buffer contained 50 mM Tris-HCl, pH7.4, 2 mM CaCl2, 1 mM NADPH, 10 mM BH4, 5 mM FAD, 5 mM FMN, and 10 mg/ml calmodulin plus radioactive precursor. After incubation, the assay reaction was halted by addition of 400 μl of buffer containing 5 mM EDTA and 50 mM HEPES. Equilibrated resin ([…], Dowex AG50WX-8 (Na^+ form) was added and the reaction mixture was transferred to spin cups and into cup holders. The mixture was passed through the Dowex AG50WX-8 resin and the filtrate collected in a spin cup. NOS activity was determined by counting the radioactivity in the flow-through (unbound) fraction. Each assay was measured in triplicate.
# (§2) QSAR were studied by ab initio Hartree-Fock calculations with the Gaussian 94 computer program (Frisch et al. 1995). Based on the optimized geometry and van der Waals radius of each atom, calculations were performed with BlogP and BlogW programs (Bodor et al. 1989, 1992A, and 1992B) to determine molecular surfaces, volumes, ovalities, partition coefficients, and water solubilities. Linear combinations of these calculated descriptors were then fitted to the observed enzyme activities. The observed activities were the remaining percentage of rat agmatinase activity at 0.5 mM of each compound, the remaining percentage of rat NOS isozyme activity at 1 mM of each compound, and the remaining percentage of rat brain NMDA receptor binding at 0.1 mM of each compound.
# rat iNOS (inducible NOS) = target: T2, rat iNOS (inducible NOS) (Rattus norvegicus, UniProt Q06518); test: NOS activity, [3H]arginine to [3H]citrulline conversion, iNOS; assay type: biochemical; conditions: Conc = 1 mM
# T2 construct: purchased Cayman, Ann Arbor, Mich
# Procedure: as §1, §2
# rat nNOS (neuronal NOS) = target: T3, rat nNOS (neuronal NOS) (Rattus norvegicus, UniProt P29476); test: NOS activity, [3H]arginine to [3H]citrulline conversion, nNOS; assay type: biochemical; conditions: Conc = 1 mM
# T3 construct: purchased Cayman, Ann Arbor, Mich
# Procedure: as §1, §2
# rat agmatinase = test: Agmatinase activity assay ([14C]-agmatine hydrolysis); assay type: biochemical; conditions: for Agmatinase activity remaining (%): Conc = 0.5 mM; for Activity for inhibiting agmatinase, in words: among the 14 test compounds
# Procedure: Agmatinase activity was measured by the method of Satishchandran and Boyle (1986) as detailed in Sastre et al. (1996). The assay is based on the hydrolysis of guanido [^14C]-agmatine to [^14C]-urea and putrescine, and subsequent trapping of [^14C]—CO2 from the labeled urea, by the addition of urease. Assays were carried out for 30 minutes at 37° C. in 300 μl of sample containing 100 mM HEPES, pH 7.8, 4 mM MgSO4, 1 mM dithiothreitol, 10 mM L-agmatine, 7 μM [^14C]-agmatine and 0.06 units of urease. Release of [^14C]—CO2 from [^14C]-urea was measured by trapping the [^14C]—CO2 in filter paper wicks saturated with benzethonium hydroxide. The reaction was stopped by injection of 40% trichloroacetic acid into the reaction chamber and the filters transferred to mini-vials containing 5 mL CYTOSCINT® cocktail (ICN Biomedicals), and counted for radioactivity by liquid scintillation spectrometry using a Beckman model LS 5801 scintillation counter.
# as §2
# rat brain NMDA receptor = test: [3H]-MK801 binding assay in rat brain membranes; conditions: Conc = 0.1 mM
# Procedure: The binding of [^3H]-MK801 to NMDA (N-methyl-D-aspartate) receptors was measured in rat brain membranes as described in Renolds et al. (1990). Briefly, the membranes were incubated in HEPES buffer (pH 7.4) containing 0.4 nM [^3H]-MK801, 100 μM glutamate, and 30 μM glycine for 1 hour at 25° C. The binding was terminated by rapid filtration over glass fiber filters and radioactivity counted. Nonspecific binding was defined using 50 μM unlabelled MK801.
# QSAR were studied by ab initio Hartree-Fock calculations with the Gaussian 94 computer program (Frisch et al. 1995). Based on the optimized geometry and van der Waals radius of each atom, calculations were performed with BlogP and BlogW programs (Bodor et al. 1989, 1992A, and 1992B) to determine molecular surfaces, volumes, ovalities, partition coefficients, and water solubilities. Linear combinations of these calculated descriptors were then fitted to the observed enzyme activities.
Compound,remaining activity at 1000 µM [1],remaining activity at 1000 µM (rat iNOS (inducible NOS)),remaining activity at 1000 µM (rat nNOS (neuronal NOS)),Agmatinase activity remaining (%) (rat agmatinase),3H-MK801 Binding Remaining (%) (rat brain NMDA receptor),"Activity for inhibiting agmatinase, in words (rat agmatinase)",Activity Remaining (%) eNOS [1],Activity Remaining (%) iNOS (rat iNOS (inducible NOS)),Activity Remaining (%) nNOS (rat nNOS (neuronal NOS))
"NC(N)=NCCCCN=C(N)N [Arcaine sulfate, reference compound]",83.4%,37.8%,9.8%,29.5%,45.1%,–,–,–,–
Trans-4-Aminocyclohexyl guanidine,–,–,–,97.0%,–,best activity,69.4%,99.6%,42.5%
N=C(N)NCCCN [3-Aminopropylguanidine],–,–,–,3.1%,93.9%,best activity,60.8%,5.1%,6.9%
N=CNCCCNCCCNC=N [Bis (3-(N-Iminomethyl)-aminopropyl)amine],–,–,–,38.0%,99.7%,–,88.7%,65.2%,23.5%
"N=C(N)NCCCCN.O=S(=O)(O)O [Agmatine sulfate, reference compound]",97.4%,35.2%,32.5%,37%,93.8%,–,–,–,–

# The next lines start with results.
remaining activity at 1000 µM [1],remaining activity at 1000 µM (rat iNOS (inducible NOS)),remaining activity at 1000 µM (rat nNOS (neuronal NOS)),Compound,Agmatinase activity remaining (%) (rat agmatinase),3H-MK801 Binding Remaining (%) (rat brain NMDA receptor),"Activity for inhibiting agmatinase, in words (rat agmatinase)",Activity Remaining (%) eNOS [1],Activity Remaining (%) iNOS (rat iNOS (inducible NOS)),Activity Remaining (%) nNOS (rat nNOS (neuronal NOS))
0%,1%,1%,"O=[N+]([O-])c1cccc2cn[nH]c12 [7-nitroindazole, reference compound]",–,–,–,–,–,–
30%,1%,20%,"N=C(N)NN [Amino guanidine, reference compound]",53%,90.6%,–,–,–,–
67.4%,7%,4.2%,C=C[C@](N)(CCCNC(=N)N)C(=O)O (racemic) [Alpha-Vinylarginine],52.0%,99.7%,–,–,–,–
